In the supplement of paper PMC10307832:

Experiments:
Assay in all cases: relative viability (nuclei count vs DMSO), 5 days (fraction); higher = more cells survive
Tozasertib + Lapatinib = compound: Cc1cc(Nc2cc(N3CCN(C)CC3)nc(Sc3ccc(NC(=O)C4CC4)cc3)n2)n[nH]1 [Tozasertib] + CS(=O)(=O)CCNCc1ccc(-c2ccc3ncnc(Nc4ccc(OCc5cccc(F)c5)c(Cl)c4)c3c2)o1 [Lapatinib] (partner 2 µM)
In short: (§1)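 Each reported value is a median over duplicate plates. It expresses relative viability: treated-well nuclei count divided by vehicle-well nuclei count. Lung cancer cell lines in 1536-well plates were dosed by pin tool a day after seeding, alone with one drug or with a fixed anchor-drug dose plus five library-drug doses (not always all listed) in √10 steps, and nuclei were counted after 5 days.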

Tozasertib + Linsitinib = compound: Cc1cc(Nc2cc(N3CCN(C)CC3)nc(Sc3ccc(NC(=O)C4CC4)cc3)n2)n[nH]1 [Tozasertib] + C[C@]1(O)C[C@@H](c2nc(-c3ccc4ccc(-c5ccccc5)nc4c3)c3c(N)nccn32)C1 [Linsitinib] (partner 1 µM)
In short: as §1

Tozasertib + Alpelisib = compound: Cc1cc(Nc2cc(N3CCN(C)CC3)nc(Sc3ccc(NC(=O)C4CC4)cc3)n2)n[nH]1 [Tozasertib] + Cc1nc(NC(=O)N2CCC[C@H]2C(N)=O)sc1-c1ccnc(C(C)(C)C(F)(F)F)c1 [Alpelisib] (partner 2 µM)
In short: as §1

Tozasertib + Dasatinib = compound: Cc1cc(Nc2cc(N3CCN(C)CC3)nc(Sc3ccc(NC(=O)C4CC4)cc3)n2)n[nH]1 [Tozasertib] + Cc1nc(Nc2ncc(C(=O)Nc3c(C)cccc3Cl)s2)cc(N2CCN(CCO)CC2)n1 [Dasatinib] (partner 0.075 µM)
In short: as §1

Tozasertib + AZD7762 = compound: Cc1cc(Nc2cc(N3CCN(C)CC3)nc(Sc3ccc(NC(=O)C4CC4)cc3)n2)n[nH]1 [Tozasertib] + NC(=O)Nc1cc(-c2cccc(F)c2)sc1C(=O)N[C@H]1CCCNC1 [AZD7762] (partner 0.2 µM)
In short: as §1

Row | Cell Line | relative viability (Tozasertib + Lapatinib; first compound 0.004 µM) | relative viability (Tozasertib + Lapatinib; first compound 0.01265 µM) | relative viability (Tozasertib + Lapatinib; first compound 0.1265 µM) | relative viability (Tozasertib + Linsitinib; first compound 0.004 µM) | relative viability (Tozasertib + Linsitinib; first compound 0.01265 µM) | relative viability (Tozasertib + Linsitinib; first compound 0.04 µM) | relative viability (Tozasertib + Linsitinib; first compound 0.1265 µM) | relative viability (Tozasertib + Alpelisib; first compound 0.004 µM) | relative viability (Tozasertib + Alpelisib; first compound 0.01265 µM) | relative viability (Tozasertib + Alpelisib; first compound 0.04 µM) | relative viability (Tozasertib + Alpelisib; first compound 0.1265 µM) | relative viability (Tozasertib + Dasatinib; first compound 0.004 µM) | relative viability (Tozasertib + Dasatinib; first compound 0.01265 µM) | relative viability (Tozasertib + Dasatinib; first compound 0.04 µM) | relative viability (Tozasertib + Dasatinib; first compound 0.1265 µM) | relative viability (Tozasertib + AZD7762; first compound 0.004 µM) | relative viability (Tozasertib + AZD7762; first compound 0.04 µM) | relative viability (Tozasertib + AZD7762; first compound 0.1265 µM) | relative viability (Tozasertib + Lapatinib; first compound 0.04 µM) | relative viability (Tozasertib + AZD7762; first compound 0.01265 µM)
1 | NCI-H2126 | 0.794 | 0.805 | 0.567 | 0.623 | 0.728 | 0.825 | 0.716 | 0.819 | 0.748 | 0.806 | 0.769 | 0.587 | 0.674 | 0.674 | 0.485 | 1.01 | 1.05 | 1.02 | – | –
2 | NCI-H2347 | 1.06 | 1.01 | 0.763 | 0.978 | 1 | 0.964 | 0.914 | 0.996 | 1.09 | 0.871 | 0.963 | 0.344 | – | 0.262 | 0.281 | 0.686 | 0.835 | 0.75 | 0.953 | 0.686
3 | NCI-H2405 | 1.05 | 0.962 | 0.705 | 1.03 | 0.944 | – | 0.962 | 0.723 | 0.812 | 0.778 | 0.807 | 0.251 | 0.124 | 0.19 | 0.197 | 0.753 | 0.612 | 0.547 | 0.793 | –
4 | NCI-H3122 | 0.974 | 0.992 | 1.04 | 0.994 | 0.997 | 0.962 | 1.05 | 0.808 | 0.809 | 0.847 | 0.749 | 0.71 | 0.802 | 0.913 | 0.886 | 1 | 1.06 | 1.07 | 1.02 | 0.952
5 | PC-3 [JPC-3] | 0.45 | 0.46 | 0.33 | 0.902 | 0.935 | 0.971 | 0.972 | 0.835 | 1.03 | 1.03 | 0.959 | 0.863 | 0.966 | 1.06 | 1.03 | 0.789 | 0.774 | 0.684 | 0.529 | 0.734
6 | PC-14 | 0.293 | 0.287 | 0.361 | 1.01 | 1 | 1.03 | 0.828 | 0.982 | 0.95 | 0.954 | 0.956 | – | 0.292 | 0.254 | 0.132 | 0.31 | 0.336 | 0.213 | 0.354 | 0.236
7 | RERF-LC-KJ | 0.86 | 0.838 | 0.804 | 0.876 | 0.861 | 0.907 | 0.777 | 0.897 | 0.761 | 0.914 | 0.599 | 0.729 | 0.806 | 0.852 | 0.582 | 1.08 | 1.06 | 0.371 | 0.925 | –
